Test results reported in patent US7300946B2, “N-(substituted arylmethyl)-4-(disubstituted methyl) piperidines and pyridines” (Bayer CropScience AG, priority 2002, dated 2007).

Tested on: tobacco budworm (Heliothis virescens [Fabricius])
Test: surface-treated diet test against the tobacco budworm
Format: in vivo
Conditions: tobacco budworm second instar larvae, 0.25 millimoles of candidate insecticide on the surface of the diet, five-day exposure; for Percent Mortality: compared to total number of insects infested; for Percent Growth Inhibition: inhibition of insect weight relative to untreated controls
Description: Candidate insecticides were evaluated for activity against the tobacco budworm (Heliothis virescens [Fabricius]) in a surface-treated diet test.
In this test one mL of molten (65–70° C.) wheat germ-based artificial diet was pipetted into each well of a four by six (24 well) multi-well plate (ID# 430345-15.5 mm dia.×17.6 mm deep; Corning Costar Corp., One Alewife Center, Cambridge, Mass. 02140). The diet was allowed to cool to ambient temperature before treatment with candidate insecticide.
For a determination of insecticidal activity, solutions of the candidate insecticides were prepared for testing using a Packard 204DT Multiprobe® Robotic System (Packard Instrument Company, 800 Research Parkway, Meriden, Conn. 06450), in which the robot first diluted a standard 50 millimolar DMSO solution of candidate insecticide with a 1:1 water/acetone solution (V/V) in a ratio of 1:7 stock solution to water/acetone. The robot subsequently pipetted 40 microliters of the so-prepared solution onto the surface of the diet in each of three wells in the 24 multi-well plate. The process was repeated with solutions of seven other candidate insecticides. Once treated, the contents of the multi-well plate were allowed to dry, leaving 0.25 millimoles of candidate insecticide on the surface of the diet, or a concentration of 0.25 millimolar. Appropriate untreated controls containing only DMSO on the diet surface were also included in this test. […]
In each well of the test plate was placed one second instar tobacco budworm larvea, each weighing approximately five milligrams. After the larvae were placed in each well, the plate was sealed with clear polyfilm adhesive tape. The tape over each well was perforated to ensure an adequate air supply. The plates were then held in a growth chamber at 25° C. and 60% relative humidity for five days (light 14 hours/day).
After the five-day exposure period insecticidal activity for each rate of application of candidate insecticide was assessed as percent inhibition of insect weight relative to the weight of insects from untreated controls, and percent mortality when compared to the total number of insects infested.
The test compounds of formula I are identified by numbers that correspond to those in Table 1.
These tests were conducted with 0.25 millimoles of candidate insecticide on the surface of the diet.

| Compound | Percent Mortality (surface-treated diet) [%] | Percent Growth Inhibition (surface-treated diet) [%] | Percent Mortality [%] | Percent Growth Inhibition [%] |
| --- | --- | --- | --- | --- |
| CCON=Cc1ccc(CN2CCC(C(OC(=O)Nc3ccc(F)c(F)c3)c3ccc(C(F)(F)F)cc3)CC2)cc1 (centres unmarked) [Compound 196] | 100 | 100 | – | – |
| CC(C)OC(=O)Nc1ccc(C[N+]2([O-])CCC(=C(c3ccc(Cl)c(Cl)c3)c3ccc(Cl)c(Cl)c3)CC2)cc1 (centres unmarked) [Compound 833] | – | – | 100 | 100 |
| CCn1nnc(-c2ccc(CN3CCC(C(OC(=O)Nc4cccc(C(F)(F)F)c4)c4ccc(OC)cc4)CC3)cc2)n1 (centres unmarked) [Compound 605] | 100 | 100 | – | – |
| [O-][N+]1(Cc2ccc(Oc3ncccn3)cc2)CCC(=C(c2ccc(C(F)(F)F)cc2)c2ccccc2Cl)CC1 (centres unmarked) [Compound 857] | – | – | 83 | 100 |
| Cn1nnc(-c2ccc(CN3CCC(C(NCc4ccc(Br)cc4)c4ccc(OC(F)(F)F)cc4)CC3)cc2)n1 (centres unmarked) [Compound 312] | 100 | 100 | – | – |
| Cn1nnc(-c2ccc(CN3CCC(C(NC(=O)c4cccc(Cl)c4)c4ccc(OC(F)(F)F)cc4)CC3)cc2)n1 (centres unmarked) [Compound 323] | 67 | 98 | – | – |
| [O-][N+]1(Cc2ccc(Oc3ncccn3)cc2)CCC(=C(c2ccc(C(F)(F)F)cc2)c2ccc(C(F)(F)F)cc2)CC1 (centres unmarked) [Compound 854] | – | – | 100 | 100 |
| O=C(NC1CCCC1)OC(c1ccc(C(F)(F)F)cc1)C1CCN(Cc2ccc(Oc3ccccn3)cc2)CC1 (centres unmarked) [Compound 781] | – | – | 100 | 100 |
| CCn1nnc(-c2ccc(CN3CCC(C(OC(=O)Nc4ccc(Cl)cc4)c4ccc(F)c(F)c4)CC3)cc2)n1 (centres unmarked) [Compound 588] | 100 | 100 | – | – |
| O=C(Nc1cc(F)cc(F)c1)OC(c1ccc(C(F)(F)F)cc1)C1CCN(Cc2ccc(O)cc2)CC1 (centres unmarked) [Compound 464] | 0 | 63 | – | – |
| Cn1nnc(-c2ccc(CN3CCC(C(OC(=O)Nc4cccc(F)c4)c4ccc(OC(F)(F)F)cc4)CC3)cc2)n1 (centres unmarked) [Compound 273] | 100 | 100 | – | – |
| CCn1nnc(-c2ccc(CN3CCC(C(OC(=O)c4ccc(OC(F)(F)F)cc4)c4ccc(OC(F)(F)F)cc4)CC3)cc2)n1 (centres unmarked) [Compound 308] | 100 | 92 | – | – |
| Fc1cc(C(=C2CCN(Cc3ccc(Oc4ncccn4)cc3)CC2)c2ccc(C(F)(F)F)cc2)ccc1Cl [Compound 821] | – | – | 100 | 100 |
| CC(C)NC(=O)Oc1ccc(C[N+]2([O-])CCC(=C(c3ccc(C(F)(F)F)cc3)c3ccc(C(F)(F)F)cc3)CC2)cc1 (centres unmarked) [Compound 830] | – | – | 100 | 100 |
| O=C(Nc1cc(F)cc(F)c1)OC(c1ccc(C(F)(F)F)cc1)C1CCN(Cc2ccc(Oc3ccc(Cl)nn3)cc2)CC1 (centres unmarked) [Compound 738] | – | – | 100 | 100 |
| CCn1nnc(-c2ccc(CN3CCC(C(OC(=O)Nc4ccc(Cl)cc4)c4ccc(OC)cc4)CC3)cc2)n1 (centres unmarked) [Compound 601] | 100 | 100 | – | – |
| O=C(Nc1ccc(Cl)cc1)OC(c1ccc(C(F)(F)F)cc1)C1CCN(Cc2ccc(Oc3ncccn3)cc2)CC1 (centres unmarked) [Compound 729] | – | – | 100 | 100 |
| O=C(Nc1ccc(Cl)cc1)OC(c1ccc(C(F)(F)F)cc1)C1CCN(Cc2ccc(-c3ccccn3)cc2)CC1 (centres unmarked) [Compound 627] | 100 | 100 | – | – |
| CC(C)COC(=O)Nc1ccc(C[N+]2([O-])CCC(=C(c3ccc(C(F)(F)F)cc3)c3ccc(C(F)(F)F)cc3)CC2)cc1 (centres unmarked) [Compound 104] | 100 | 100 | – | – |

| Compound | Percent Mortality (surface-treated diet) [%] | Percent Growth Inhibition (surface-treated diet) [%] | Percent Mortality [%] | Percent Growth Inhibition [%] |
| --- | --- | --- | --- | --- |
| CC(=O)Nc1ccc(CN2CCC(C(OC(=O)Nc3cc(F)cc(F)c3)c3ccc(C(F)(F)F)cc3)CC2)cc1 (centres unmarked) [Compound 495] | 0 | 98 | – | – |
| CCn1nnc(-c2ccc(CN3CCC(C(OC(=O)Nc4ccc(Cl)c(Cl)c4)c4ccc(-c5ccccc5)cc4)CC3)cc2)n1 (centres unmarked) [Compound 612] | 0 | 48 | – | – |
| Cn1nnc(-c2ccc(CN3CCC(C(NC(=O)Oc4ccc(Cl)cc4)c4ccc(OC(F)(F)F)cc4)CC3)cc2)n1 (centres unmarked) [Compound 349] | 100 | 100 | – | – |
| COc1ccc(CNC(=O)OC(c2ccc(C(F)(F)F)cc2)C2CCN(Cc3ccc(Oc4ccccn4)cc3)CC2)cc1 (centres unmarked) [Compound 698] | 100 | 100 | – | – |
| CC(C)NC(=O)OC(c1ccc(C(F)(F)F)cc1)C1CC[N+]([O-])(Cc2ccc(Oc3ccccn3)cc2)CC1 (centres unmarked) [Compound 785] | – | – | 100 | 100 |
| CCON=Cc1ccc(CN2CCC(C(OC(=O)Nc3cccc(F)c3)c3cc(Cl)cc(Cl)c3)CC2)cc1 (centres unmarked) [Compound 533] | 100 | 100 | – | – |
| CCn1nnc(-c2ccc(CN3CCC(=C(c4ccc5c(c4)OC(F)(F)O5)c4ccc5c(c4)OC(F)(F)O5)CC3)cc2)n1 [Compound 83] | 100 | 100 | – | – |
| CCCOc1ccc(CN2CCC(C(OC(=O)Nc3ccc(F)cc3)c3ccc(Cl)cc3)CC2)cc1 (centres unmarked) [Compound 471] | 100 | 100 | – | – |
| O=C(Nc1cccc(C(F)(F)F)c1)OC(c1ccc(Cl)cc1)C1CCN(Cc2ccc(Oc3ccccn3)cc2)CC1 (centres unmarked) [Compound 634] | 100 | 100 | – | – |
| O=C(Nc1cccnc1)OC(c1ccc(C(F)(F)F)cc1)C1CCN(Cc2ccc(Oc3ccccn3)cc2)CC1 (centres unmarked) [Compound 444] | 0 | 96 | – | – |
| CCn1nnc(-c2ccc(CN3CCC(C(OC(=O)Nc4ccc(C(F)(F)F)cc4)c4ccc(OC)cc4)CC3)cc2)n1 (centres unmarked) [Compound 606] | 100 | 100 | – | – |
| Cn1nnc(-c2ccc(CN3CCC(C(NC(=O)Nc4ccccc4Cl)c4ccc(OC(F)(F)F)cc4)CC3)cc2)n1 (centres unmarked) [Compound 334] | 100 | 100 | – | – |
| Cn1nnc(-c2ccc(CN3CCC(C(NC(=O)Oc4ccc([N+](=O)[O-])cc4)c4ccc(OC(F)(F)F)cc4)CC3)cc2)n1 (centres unmarked) [Compound 358] | 83 | 99 | – | – |
| O=C(Nc1cc(F)cc(F)c1)OC(c1ccc(C(F)(F)F)cc1)C1CCN(Cc2ccc(NC3=NCCO3)cc2)CC1 (centres unmarked) [Compound 563] | 0 | 96 | – | – |
| O=C(Nc1cc(F)cc(F)c1)OC(c1ccc(C(F)(F)F)cc1)C1CC[N+]([O-])(Cc2ccc(-c3ccccc3)cc2)CC1 (centres unmarked) [Compound 748] | – | – | 100 | 100 |
| CCON=Cc1ccc(CN2CCC(C(OC(=O)Nc3ccc(Br)cc3C(F)(F)F)c3ccc(C(F)(F)F)cc3)CC2)cc1 (centres unmarked) [Compound 208] | 100 | 100 | – | – |
| [O-][N+]1(Cc2ccc(Oc3ncccn3)cc2)CCC(=C(c2ccc(C(F)(F)F)cc2)c2ccc(Cl)c(Cl)c2)CC1 (centres unmarked) [Compound 850] | – | – | 100 | 100 |
| CCCCCc1ccc(CN2CCC(C(OC(=O)Nc3cc(F)cc(F)c3)c3ccc(C(F)(F)F)cc3)CC2)cc1 (centres unmarked) [Compound 467] | 0 | 68 | – | – |
